For one assay, the system named is linear pBR322 DNA. Kind of assay: DNA cross-linking, electrophoretic assay (XL50). The class given is biochemical. The conditions noted are these: concentration giving 50% cross-linked plasmid DNA; 2 hours, 37° C., pH 7.2. The protocol:
The extent of DNA cross-linking induced by each PBD dimer was determined using the electrophoretic assay method of Hartley, et al. (Hartley, J. A., Berardini, M. D., and Souhami, R. L. (1991) Anal. Biochem. 193, 131-134) based on the principle that, following complete denaturation of linear pBR322 DNA (˜4,300 bp) to the single-stranded (SS) form, an interstrand cross-link results in renaturation to double-stranded (DS) in a neutral gel.
Closed-circular DNA was linearized with HindIII, then dephosphorylated and finally 5′-singly end-labelled using [γ^32P]-ATP and polynucleotide kinase. Reactions containing 30-40 ng of DNA and the test compound were carried out in aqueous TEOA (25 mM triethanolamine, 1 mM EDTA, pH 7.2) buffer at 37° C. in a final volume of 50 μl for 2 hours. Reactions were terminated by addition of an equal volume of stop solution (0.6 M NaOAc, 20 mM EDTA, 100 μg/ml tRNA) followed by precipitation with ethanol. Following centrifugation, the supernatant was discarded and the pellet dried by lyophilization. Samples were re-suspended in 10 μl of strand separation buffer (30% DMSO, 1 mM EDTA, 0.04% bromophenol blue and 0.04% xylene cylanol) and denatured by heating to 90° C. for 2.5 min, followed by immersion in an ice/water bath. Control non-denatured samples were re-suspended in 10 μl of non-denaturing buffer solution (0.6% sucrose, 0.04% bromophenol blue in aqueous TAE buffer [40 mM Tris, 20 mM acetic acid, 2 mM EDTA, pH 8.1]) and loaded directly onto the gel for comparison.
Electrophoresis was carried out for 14-16 h at 40 V using a 0.8% submerged agarose gel (20×25×0.5 cm) in TAE buffer. Gels were dried under vacuum for 2 hour at 80° C. onto one layer each of Whatman 3MM and DE8I filter papers using a BioRad 583 gel dryer. Autoradiographs were obtained after exposure of Hyperfilm-MP film (Amersham plc, U.K.) to the dried gel for either 4 hour with a screen (or over night, without a screen, to obtain a sharper image). Film bands were quantitated using a BioRad GS-670 imaging laser densitometer. Percentage cross-linking was calculated by measuring the total DNA in each lane (summed density for the double-stranded [DS] and single-stranded [SS] bands) relative to the amount of cross-linked DNA (density of DS band alone). A dose-response curve was derived by plotting drug concentration against the determined percentage level of cross-linked DNA which was then analysed to determine the concentration of test compound that results in 50% cross-linked plasmid DNA (XL50).

Assay [1] relates to K562 human chronic myeloid leukaemia cells. The assay can be described thus: In vitro cytotoxicity, K562 cells, MTT assay. The assay is classed as cell-based. The protocol: K562 human chronic myeloid leukaemia cells were maintained in RPM1 1640 medium supplemented with 10% fetal calf serum and 2 mM glutamine at 37° C. in a humidified atmosphere containing 5% CO2 and were incubated with a specified dose of drug for 1 hour or 96 hours at 37° C. in the dark. The incubation was terminated by centrifugation (5 min, 300 g) and the cells were washed once with drug-free medium. Following the appropriate drug treatment, the cells were transferred to 96-well microtiter plates (10^4 cells per well, 8 wells per sample). Plates were then kept in the dark at 37° C. in a humidified atmosphere containing 5% CO2. The assay is based on the ability of viable cells to reduce a yellow soluble tetrazolium salt, 3-(4,5-dimethylthiazol-2-yl)-2,5-diphenyl-2H-tetrazolium bromide (MTT, Aldrich-Sigma), to an insoluble purple formazan precipitate. Following incubation of the plates for 4 days (to allow control cells to increase in number by approximately 10 fold), 20 μL of MTT solution (5 mg/mL in phosphate-buffered saline) was added to each well and the plates further incubated for 5 hours. The plates were then centrifuged for 5 minutes at 300 g and the bulk of the medium pipetted from the cell pellet leaving 10-20 μL per well. DMSO (200 μL) was added to each well and the samples agitated to ensure complete mixing. The optical density was then read at a wavelength of 550 nm on a Titertek Multiscan ELISA plate reader, and a dose-response curve was constructed. For each curve, an IC50 value was read as the dose required to reduce the final optical density to 50% of the control value.

Assay [2] concerns approximately 60 human tumour cell lines. The assay can be described thus: NCI 60 cell screen, SRB assay. The conditions noted are these: 48 hour continuous exposure. The class given is cell-based. The protocol: The National Cancer Institute (NCI), Bethesda, Md., USA has available an in vitro cytotoxicity screen which consists of approximately 60 human tumour cell lines against which compounds are tested at a minimum of five concentrations each differing 10-fold. A 48 hour continuous exposure protocol is used, where cell viability or growth is estimated with an SRB protein assay.
The test compounds were evaluated against approximately 60 human tumour cell lines. The NCI screening procedures were described in detail by Monks and co-workers (Monks, A et al., Journal of the National Cancer Institute, 1991, 83, 757). Briefly, cell suspensions were diluted according to the particular cell type and the expected target cell density (5000-40,000 cells per well based on cell growth characteristics), and added by pipette (100 μL) into 96-well microtitre plates. The cells were allowed a preincubation period of 24 hours at 37° C. for stabilisation. Dilutions at twice the intended test concentration were added at time zero in 100 μL aliquots to the wells. The test compounds were evaluated at five 10-fold dilutions (10^−4, 10^−5, 10^−6, 10^−7 and 10^−[…]). The test compounds were incubated for 48 hours in 5% CO2 atmosphere and 100% humidity. The cells were then assayed using the sulphorhodamine B assay. A plate reader was used to read the optical densities and a microcomputer processed the readings into GI50 values (in Moles), which is the dosage required to limit cell growth to 50%.

Where [3] appears, read: Homo sapiens, 1 hr exposure, read-out: IC50 1 hr exposure.
Where [4] appears, read: Homo sapiens, 96 hr exposure, sub-table of 16e-j, read-out: IC50 96 hr exposure.
Where [5] appears, read: Homo sapiens, 96 hr exposure, sub-table of 29a-c, read-out: IC50 96 hr exposure.
Where [6] appears, read: Homo sapiens, sub-table of 29a-c.

Structures are written as SMILES. Read-outs that look alike come from different tables or passages of the source.

For `COc1ccc2c(c1)N=C[C@H]1C(OCCCCCCCCCCOC3CCN4C(=O)c5ccc(OC)cc5N=C[C@@H]34)CCN1C2=O` (stereo partly drawn) [Compound 9h, 1,1′-[(Decane-1,10-diyl)dioxy]bis[(11aS)-8-methoxy-1,2,3,11a-tetrahydro-5H-pyrrolo[2,1-c][1,4]benzodiazepine-5-one]], the EC50 in the assay on linear pBR322 DNA turned out to be 170 nM. The IC50 in assay [1] (setting [3]) was determined as 16100 nM. Moreover, the GI50 in assay [2] (Homo sapiens) turned out to be 1120 nM.
In the same order, the values of `COc1ccc2c(c1)N=C[C@H]1C(OCCCCCCCCCCCCOC3CCN4C(=O)c5ccc(OC)cc5N=C[C@@H]34)CCN1C2=O` (stereo partly drawn) [Compound 9j, 1,1′-[(Dodecane-1,12-diyl)dioxy]bis[(11aS)-8-methoxy-1,2,3,11a-tetrahydro-5H-pyrrolo[2,1-c][1,4]benzodiazepine-5-one]] are above 100000 nM, 9120 nM and 210 nM.
Regarding `COc1ccc2c(c1)C(=O)N1CCC(OCCCCCCCCCCOC3CCN4C(=O)c5cc(OC)ccc5N=C[C@@H]34)[C@@H]1C=N2` (stereo partly drawn) [Compound 16h, 1,1′-[(Decane-1,10-diyl)dioxy]bis[(11aS)-7-methoxy-1,2,3,11a-tetrahydro-5H-pyrrolo[2,1-c][1,4]benzodiazepine-5-one]], the EC50 in the assay with linear pBR322 DNA is 5000 nM. Besides, the IC50 in assay [1] (setting [4]) is 352 nM. Further, the GI50 in assay [2] (Homo sapiens) worked out at 54 nM.
Regarding `COc1ccc2c(c1)N=C[C@H]1C(OCCCCCCCCOC3CCN4C(=O)c5ccc(OC)cc5N=C[C@@H]34)CCN1C2=O` (stereo partly drawn) [Compound 9f, 1,1′-[(Octane-1,8-diyl)dioxy]bis[(11aS)-8-methoxy-1,2,3,11a-tetrahydro-5H-pyrrolo[2,1-c][1,4]benzodiazepine-5-one]], in the assay with linear pBR322 DNA, the EC50 worked out at 1800 nM. Moreover, in assay [1] (setting [3]), the IC50 was determined as 9720 nM. Further, in assay [2] (Homo sapiens), the GI50 worked out at 1170 nM.
`COc1ccc2c(c1)N=C[C@H]1C(OCCCOC3CCN4C(=O)c5ccc(OC)cc5N=C[C@@H]34)CCN1C2=O` (stereo partly drawn) [Compound 9a, 1,1′-[(Propane-1,3-diyl)dioxy]bis[(11aS)-8-methoxy-1,2,3,11a-tetrahydro-5H-pyrrolo[2,1-c][1,4]benzodiazepine-5-one]]: the EC50 in the assay on linear pBR322 DNA was above 100000 nM. Also, in assay [1] (setting [3]), the IC50 was above 30000 nM. This compound also displayed a GI50 in assay [2] (Homo sapiens) of 8910 nM.
With `C=C1CN2C(=O)c3cc(OC)ccc3N=C[C@H]2C1OCCCCCCCCCCOC1C(=C)CN2C(=O)c3cc(OC)ccc3N=C[C@@H]12` (stereo partly drawn) [Compound 29c, 1,1′-[(Decane-1,10-diyl)dioxy]bis[(11aS)-7-methoxy-2-methylene-1,2,3,11a-tetrahydro-5H-pyrrolo[2,1-c][1,4]benzodiazepine-5-one]], in the assay on linear pBR322 DNA, the response was half-maximal at 3900 nM (EC50). Besides, the IC50 in assay [1] (setting [5]) was determined as 100 nM. In assay [2] (setting [6]), the GI50 amounted to 13.2 nM.
In the same order, the values of `C=C1CN2C(=O)c3cc(OC)ccc3N=C[C@H]2C1OCCCCCCCCCOC1C(=C)CN2C(=O)c3cc(OC)ccc3N=C[C@@H]12` (stereo partly drawn) [Compound 29b, 1,1′-[(Nonane-1,9-diyl)dioxy]bis[(11aS)-7-methoxy-2-methylene-1,2,3,11a-tetrahydro-5H-pyrrolo[2,1-c][1,4]benzodiazepine-5-one]] are 1500 nM, 33.8 nM and 20.9 nM.
As for `COc1ccc2c(c1)C(=O)N1CCC(OCCCCCCCCCCCOC3CCN4C(=O)c5cc(OC)ccc5N=C[C@@H]34)[C@@H]1C=N2` (stereo partly drawn) [Compound 16i, 1,1′-[(Undecane-1,11-diyl)dioxy]bis[(11aS)-7-methoxy-1,2,3,11a-tetrahydro-5H-pyrrolo[2,1-c][1,4]benzodiazepine-5-one]], the IC50 in assay [1] (setting [4]) was found to be 689 nM. In assay [2] (Homo sapiens), the GI50 was found to be 220 nM.
In the case of `COc1ccc2c(c1)C(=O)N1CCC(OCCCCCCCCCCCCOC3CCN4C(=O)c5cc(OC)ccc5N=C[C@@H]34)[C@@H]1C=N2` (stereo partly drawn) [Compound 16j, 1,1′-[(Dodecane-1,12-diyl)dioxy]bis[(11aS)-7-methoxy-1,2,3,11a-tetrahydro-5H-pyrrolo[2,1-c][1,4]benzodiazepine-5-one]], the IC50 in assay [1] (setting [4]) was found to be 645 nM. For the same compound, the GI50 in assay [2] (Homo sapiens) was determined as 150 nM.
In the assay with linear pBR322 DNA, `COc1ccc2c(c1)C(=O)N1CCC(OCCCCOC3CCN4C(=O)c5cc(OC)ccc5N=C[C@@H]34)[C@@H]1C=N2` (stereo partly drawn) [Compound 16b, 1,1′-[(Butane-1,4-diyl)dioxy]bis[(11aS)-7-methoxy-1,2,3,11a-tetrahydro-5H-pyrrolo[2,1-c][1,4]benzodiazepine-5-one]] gave an EC50 of 1000 nM. For the same compound, the IC50 in assay [1] (setting [3]) was determined as 2500 nM. In assay [2] (Homo sapiens), this compound gave a GI50 of 2510 nM.
`COc1ccc2c(c1)N=C[C@H]1C(OCCCCOC3CCN4C(=O)c5ccc(OC)cc5N=C[C@@H]34)CCN1C2=O` (stereo partly drawn) [Compound 9b, 1,1′-[(Butane-1,4-diyl)dioxy]bis[(11aS)-8-methoxy-1,2,3,11a-tetrahydro-5H-pyrrolo[2,1-c][1,4]benzodiazepine-5-one]]: the IC50 in assay [1] (setting [3]) was above 30000 nM. The GI50 in assay [2] (Homo sapiens) was determined as 28100 nM.
`COc1cc2c(cc1OCCCCCOc1cc3c(cc1OC)N=C[C@@H]1CCCN1C3=O)C(=O)N1CCC[C@H]1C=N2` [Compound 9c, 1,11-[(Pentane-1,5-diyl)dioxy]bis[(11aS)-8-methoxy-1,2,3,11a-tetrahydro-5H-pyrrolo[2,1-c][1,4]benzodiazepine-5-one]]: the IC50 in assay [1] (1 hr exposure, read-out: IC50 1 hr exposure) was above 30000 nM. In assay [2], this compound returned a GI50 of 10200 nM.
For `COc1ccc2c(c1)N=C[C@H]1C(OCCCCCCOC3CCN4C(=O)c5ccc(OC)cc5N=C[C@@H]34)CCN1C2=O` (stereo partly drawn) [Compound 9d, 1,1′-[(Hexane-1,6-diyl)dioxy]bis[(11aS)-8-methoxy-1,2,3,11a-tetrahydro-5H-pyrrolo[2,1-c][1,4]benzodiazepine-5-one]], the IC50 in assay [1] (setting [3]) was above 30000 nM. The compound further displayed a GI50 in assay [2] (Homo sapiens) of 4000 nM.
`C=C1CN2C(=O)c3cc(OC)ccc3N=C[C@H]2C1OCCCCCCCCOC1C(=C)CN2C(=O)c3cc(OC)ccc3N=C[C@@H]12` (stereo partly drawn) [Compound 29a, 1,1′-[(Octane-1,8-diyl)dioxy]bis[(11aS)-7-methoxy-2-methylene-1,2,3,11a-tetrahydro-5H-pyrrolo[2,1-c][1,4]benzodiazepine-5-one]] displayed a 50% growth inhibitory concentration (GI50) in assay [2] (setting [6]) of 13.8 nM.

(Values after patent publication US7557099B2, “Pyrrolobenzodiazepines as key intermediates in the synthesis of dimeric cytotoxic pyrrolobenzodiazepines” (Spirogen Limited, priority 2004, dated 2009).)
